Assay results: patent US5622498A, “Method for the treatment of periodontal disease by sustained delivery of a therapeutic agent to the periodontal pocket, composition of matter therefor and apparatus for the administration thereof” (priority 1993, dated 1997)

Assays:
[1] = tested on: gram-positive and gram-negative organisms; details: cited from earlier work
[2] = dog, in vivo
Text: Pharmacokinetic investigation of minocycline-containing periodontal microcapsules was undertaken to produce a dosage form that could be administered to the periodontal pocket and that would yield minocycline concentrations exceeding the MIC's (0.05-1.56 mcg/ml) for organisms associated with periodontal disease for extended periods of time. Therefore, a study to evaluate four different minocycline periodontal formulations relative to determining minocycline levels in crevicular fluid was conducted in a dog model. The study utilized beagle dogs with surgically created "chronic" intrabony periodontal defects. […]
In sequence, the defects were created as follows: First, the lower fourth premolars were extracted, sockets were allowed to heal for one month, and dogs received a full mouth scaling and tooth cleaning. […] Dogs were monitored for an additional four weeks.
For evaluation of crevicular levels of minocycline, dogs were placed under general anesthesia, and the various formulations were administered into the periodontal pockets associated with the created defects. […] The strip was then removed, and the relative amount of fluid was determined by a Periotron 6000 instrument. […]
Samples of gingival fluid are collected as described above, and analyzed. […]

[3] = tested on: organisms associated with periodontal disease; details: cited from earlier work

What does the source list for `CN(C)c1ccc(O)c2c1C[C@H]1C[C@H]3[C@H](N(C)C)C(O)=C(C(N)=O)C(=O)[C@@]3(O)C(O)=C1C2=O` [minocycline, 7-dimethylamino-6-deoxy-6-demethyltetracycline]?
antibacterial activity [1]: activity against a wide range of gram-positive and gram-negative organisms; period for which minimum inhibitory concentrations (MIC's) can be achieved [2]: up to two; MIC [3]: 0.05 to 1.56 µg/mL
